± gives the uncertainty stated by the source.
Test: xn = mol fraction of the nth substance listed

O=S(=O)(O)O + O=[N+]([O-])c1ccccc1
303.15 K, 101 kPa
Conditions	viscosity [mPa·s]
x1 = 0.2497	3.5 ± 0.09
x1 = 0.4023	5.75 ± 0.15
x1 = 0.562	9.38 ± 0.25
x1 = 0.656	12.28 ± 0.33
x1 = 0.6792	12.94 ± 0.35
x1 = 0.7132	13.56 ± 0.37
x1 = 0.796	16.17 ± 0.44
x1 = 0.8755	18.31 ± 0.5
x1 = 0.9516	18.96 ± 0.51
x1 = 0.9542	18.56 ± 0.5
x1 = 0.9702	19.68 ± 0.54
x2 = 0.0128	19.92 ± 0.54

CC1CCCC(C)C1=O (stereo not given) + COc1ccccc1N
viscosity [mPa·s], 100 kPa
Conditions	x2 = 0.0997	x2 = 0.1852	x2 = 0.2554	x2 = 0.3527	x2 = 0.4551	x2 = 0.5424	x2 = 0.6519	x2 = 0.7414	x2 = 0.8479
303.15 K	3.865 ± 0.16	3.998 ± 0.16	4.106 ± 0.17	4.247 ± 0.17	4.383 ± 0.18	4.491 ± 0.18	4.612 ± 0.19	4.701 ± 0.19	4.797 ± 0.19
308.15 K	3.412 ± 0.14	3.557 ± 0.14	3.673 ± 0.15	3.825 ± 0.15	3.972 ± 0.16	4.09 ± 0.17	4.227 ± 0.17	4.325 ± 0.17	4.435 ± 0.18
313.15 K	2.958 ± 0.12	3.116 ± 0.13	3.239 ± 0.13	3.401 ± 0.14	3.56 ± 0.14	3.687 ± 0.15	3.84 ± 0.16	3.948 ± 0.16	4.071 ± 0.17

CCOC=O + O=C1CCCO1
298.15 K, 101.33 kPa
Conditions	viscosity [mPa·s]
x1 = 0.0501	1.571 ± 0.012
x1 = 0.0994	1.446 ± 0.011
x1 = 0.1504	1.333 ± 0.01
x1 = 0.2017	1.23 ± 0.01
x1 = 0.2492	1.143 ± 0.009
x1 = 0.3001	1.057 ± 0.008
x1 = 0.4017	0.895 ± 0.007
x1 = 0.4509	0.845 ± 0.007
x1 = 0.503	0.783 ± 0.007
x1 = 0.5488	0.732 ± 0.006
x1 = 0.6028	0.677 ± 0.006
x1 = 0.7138	0.576 ± 0.005
x1 = 0.7502	0.547 ± 0.005
x1 = 0.7894	0.51 ± 0.005
x1 = 0.8503	0.47 ± 0.004
x1 = 0.9	0.439 ± 0.004
x1 = 0.9501	0.412 ± 0.004

ClCCl + COC(=O)OC
viscosity [mPa·s], 101.33 kPa
Conditions	x2 = 0.0957	x2 = 0.2018	x2 = 0.3029	x2 = 0.3958	x2 = 0.5009	x2 = 0.5996	x2 = 0.6992	x2 = 0.7599	x2 = 0.9005
298.15 K	0.4 ± 0.012	0.423 ± 0.012	0.441 ± 0.013	0.458 ± 0.013	0.472 ± 0.014	0.485 ± 0.014	0.495 ± 0.014	0.5 ± 0.014	0.52 ± 0.015
303.15 K	0.384 ± 0.011	0.4 ± 0.012	0.419 ± 0.012	0.431 ± 0.013	0.447 ± 0.013	0.461 ± 0.013	0.47 ± 0.014	0.478 ± 0.014	0.49 ± 0.014
308.15 K	0.374 ± 0.011	0.385 ± 0.011	0.399 ± 0.012	0.409 ± 0.012	0.42 ± 0.012	0.43 ± 0.013	0.44 ± 0.013	0.448 ± 0.013	0.461 ± 0.014

ClCCl + CCCCn1cc[n+](C)c1.F[P-](F)(F)(F)(F)F
298.15 K, 101 kPa
Conditions	viscosity [mPa·s]
x1 = 0.2451	88.7 ± 21
x1 = 0.6462	9.51 ± 1.1
